Where “and” joins values, the source holds several entries; their conditions need not be identical. Identical values can stand only once. Entries after “also recorded” stand apart in the source; their conditions may differ. Like-named read-outs stand apart in the source and are kept apart here.
Tests used:
[1] = tested on: adult S. japonicum male worms; assay: In vitro screening of S. japonicum adults at 100 nM (WormAssay motility, descriptors, severity score); assay type: cell-based, Schistosoma japonicum; design: key to DESCRIPTORS 48 h / DESCRIPTORS 72 h: Dark = dark; S = Slow; S-uncoord = uncoordinated slow movements; O-uncoord = uncoordinated fast movements; On sides = male worms are not adhering to dish with ventral sucker; Shrunk = worms are not flexing and are smaller than usual; Teg damage = outer surface (tegument of the worm) is damaged; Deg= degenerating; D = Dead; details: for Effect on S. japonicum adult male worms: 5, 24, 48 and 72 h; for SEVERITY SCORES 5 h / SEVERITY SCORES 24 h / SEVERITY SCORES 48 h / SEVERITY SCORES 72 h: max = 4, one line per replicate
Procedure, shortened: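 Adult worms recovered by perfusion, about 5 males per well in Basch 169 medium with antibiotics and FBS. Exposed to 100 nM compound (DMSO), in triplicate or sometimes duplicate. Male phenotypes scored with descriptors and severity score, and average motility per well measured by WormAssay.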

[2] = tested on: S. mansoni schistosomula; assay: S. mansoni schistosomula high-throughput phenotype and motility screen (Roboworm), 72 h; assay type: cell-based, Schistosoma mansoni; details: for EC50: Schistosoma mansoni
Procedure, shortened: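 Newly transformed schistosomula (S. mansoni PR-1, mechanically transformed cercariae), 120 per well, exposed to compounds at a single concentration or two-fold titrations for 72 h at 37 °C, 5% CO2.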

[3] = tested on: Adult S. haematobium worms; assay: In vitro screening of S. haematobium adults at 100 nM (WormAssay motility, descriptors, severity score); assay type: cell-based, Schistosoma haematobium; details: for Effect on S. haematobium adult worms: 5, 24, 48 and 72 h; for SEVERITY SCORES 5 h / SEVERITY SCORES 24 h / SEVERITY SCORES 48 h / SEVERITY SCORES 72 h: max = 4, one line per replicate
Method: For each species, parasite recovery involved reverse perfusion of the hepatic portal and mesenteric system using DMEM (Fisher Scientific). Parasites were washed six times with Basch 169 medium supplemented with 100 U/ml penicillin and 100 μg/ml streptomycin before manually distributing approximately 5 males per well (on occasion 1 or 2 females might also be present) of a 24-well plate (Corning Costar 3524). […] The next morning, a final concentration of 100 nM compound (in 1 μL DMSO) was added to each well and the final volume made up to 2 ml with Basch 169 medium supplemented with antibiotics and FBS. Each compound was tested in triplicate (except for some instances tested in duplicate). […] The phenotypic characterisation of compound effects focused on male worms due to the greater range of their motility characteristics that include flexing, bending, stretching, sucker walking and adherence, compared to the more sedentary female worms. In addition to descriptors, WormAssay, as adapted for the schistosome, was used to measure average worm motility per well [72, 73].

[4] = tested on: S. mansoni miracidia; assay: S. mansoni miracidia to sporocyst transformation screen, 48 h; assay type: cell-based, Schistosoma mansoni
From the text: Following hepatic portal vein perfusion of TO mice, experimentally infected 7 weeks previously, the mouse livers were collected to isolate parasite eggs. Briefly, the infected tissues were homogenised in double saline solution (1.7% w/v NaCl) using a Waring blender. The homogenates were passed through a 0.45 μm filter to retain egg material and the resulting filtered solution was collected in a volumetric flask. Miracidia hatching was induced by exposure of eggs to light in artificial river water (e.g. Lepple water). The resulting miracidial suspension was collected, washed with Chernin's balanced salt solution (CBSS) and enumerated prior to being used for in vitro miracidia to sporocyst screens, as previously described. […] Each treatment was set up in duplicate and parasites cultured in CBSS with 1% DMSO were set up as negative controls. After 48 h incubation at 26 °C, dead, fully transformed and partially transformed miracidia were enumerated as previously described [[18],[64], [65], [66]].

[5] = tested on: S. mansoni adult worms; assay: S. mansoni adult worm motility screen (WormassayGP2), 72 h; assay type: cell-based, Schistosoma mansoni; details: for EC50: Schistosoma mansoni
Procedure, shortened: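 Seven-week adult S. mansoni worms, perfused from infected mice, were exposed in duplicate (1–3 pairs/well) to […] compound in 0.5% DMSO for 72 h at 37 °C, 5% CO2. Motility was scored by image-based WormassayGP2, and eggs were counted afterwards.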

[6] = S. japonicum, one line per replicate
[7] = 72 h, Table 2, average of phenotype and motility EC50, 72 h, read-out: Activity on schistosomula (EC50, μM - 72 h) Average
[8] = 72 h, Table 2, motility, 72 h, three replicate titrations (0.313–10 μM), read-out: Activity on schistosomula (EC50, μM - 72 h) M
[9] = 72 h, Table 2, phenotype, 72 h, three replicate titrations (0.313–10 μM), read-out: Activity on schistosomula (EC50, μM - 72 h) P
[10] = Table 4, Series A, read-out: Anti-schistosomal activity EC50 Schistosomula (μM) Motility
[11] = Table 4, Series A, read-out: Anti-schistosomal activity EC50 Schistosomula (μM) Phenotype
[12] = Table 4, Series A, read-out: Anti-schistosomal activity EC50 Adult (nM) Motility
[13] = Table 2, 72 h, titrations 0.0095–5 μM, WormassayGP2, read-out: Activity on adult worms (EC50, μM - 72 h) Motility

Structure (SMILES)	Effect on S. japonicum adult male worms [1]	SEVERITY SCORES 5 h ([1]; S. japonicum)	SEVERITY SCORES 24 h ([1]; S. japonicum, 24 h)	SEVERITY SCORES 48 h ([1]; S. japonicum)	DESCRIPTORS 48 h [1, 6]	SEVERITY SCORES 72 h ([1]; S. japonicum)	DESCRIPTORS 72 h [1, 6]	EC50 [2, 7] [µM]	EC50 [2, 8] [µM]	EC50 [2, 9] [µM]	EC50 [2, 10] [µM]	EC50 [2, 11] [µM]	Effect on S. haematobium adult worms [3]	SEVERITY SCORES 5 h ([3]; S. haematobium)	SEVERITY SCORES 24 h ([3]; S. haematobium, 24 h)	SEVERITY SCORES 48 h ([3]; S. haematobium, 48 h)	SEVERITY SCORES 72 h ([3]; S. haematobium, 72 h)	EC50 [5, 12] [nM]	EC50 [5, 13] [nM]	also measured
O=[N+]([O-])c1ccc2nc(Nc3cc(C(F)(F)F)ccc3F)c(Nc3cc(C(F)(F)F)ccc3F)nc2c1 [Compound 33, N2, N3-bis(2-fluoro-5-(trifluoromethyl)phenyl)-6-nitroquinoxaline-2,3-diamine]	essentially lethal	0	0	4	Dying, deg	4	Dying, D	0.15	0.15	0.15	0.15	0.15	best activity	0	2	3	4	5.6	5.6	Onset time on S. japonicum [1]: ≤ 24 h; DESCRIPTORS 24 h ([1]; S. japonicum, 24 h, one line per replicate): Dark, S, on sides; EC50 ([2]; 72 h, Table S7, motility, 95% CI in brackets, read-out: Activity on schistosomula (EC50, µM - 72 h) (95% CI) M): 0.15 µM; EC50 ([2]; 72 h, Table S7, phenotype, 95% CI in brackets, read-out: Activity on schistosomula (EC50, µM - 72 h) (95% CI) P): 0.15 µM; Onset time on S. haematobium [3]: ≤ 24 h; DESCRIPTORS 24 h ([3]; S. haematobium, 24 h, one line per replicate): S, on sides; also recorded: S, onsides; DESCRIPTORS 48 h ([3]; S. haematobium, 48 h, one line per replicate): S, dark on sides; DESCRIPTORS 72 h ([3]; S. haematobium, 72 h, one line per replicate): S, deg, on sides; Effect on miracidia at 0.5 μM ([4]; 0.5 μM, lowest concentration tested): parasite death
O=[N+]([O-])c1ccc2nc(Nc3ccc(Cl)c(Cl)c3)c(Nc3ccc(Cl)c(Cl)c3)nc2c1 [Compound 22, N^2, N^3-bis(3,4-dichlorophenyl)-6-nitroquinoxaline-2,3-diamine]	decreased motility starting at 48 h	0	0	1 and 2	S and S, on sides	2	S+, on sides	0.44	0.42	0.47	0.42	0.47	mainly inactive	0	0	0	0	84.7	84.7	Activity on schistosomula in the primary screen at 10 μM ([2]; 10 μM, 72 h): retained activity; EC50 ([2]; 72 h, Table 1, 72 h, two dose response titrations (0.313–10 μM), 95% CI in brackets, read-out: Activity on schistosomula (EC50, μM - 72 h) Motility): 0.38 µM; EC50 ([2]; 72 h, Table 1, 72 h, two dose response titrations (0.313–10 μM), 95% CI in brackets, read-out: Activity on schistosomula (EC50, μM - 72 h) Phenotype): 0.4 µM; EC50 ([2]; 72 h, Table 1, mean of phenotype and motility EC50, 72 h, read-out: Activity on schistosomula (EC50, μM - 72 h) Average): 0.39 µM; EC50 ([2]; Table 3, read-out: Anti-schistosomal activity EC50 (μM) Schistosomula Motility): 0.42 µM; EC50 ([2]; Table 3, read-out: Anti-schistosomal activity EC50 (μM) Schistosomula Phenotype): 0.47 µM; EC50 ([2]; Table 5, Series C, read-out: Anti-schistosomal activity EC50 Schistosomula (μM) Motility): 0.42 µM; EC50 ([2]; Table 5, Series C, read-out: Anti-schistosomal activity EC50 Schistosomula (μM) Phenotype): 0.47 µM; EC50 ([2]; commercially sourced batch (c22), Fig. S7, read-out: EC50 on schistosomula, original commercially sourced compound): 0.61 µM; EC50 ([2]; re-synthesised batch (rs22), Fig. S7, read-out: EC50 on schistosomula, re-synthesised compound): 0.51 µM; Effect on miracidia at 5 μM ([4]; 5 μM in 1% DMSO): not lethal; Reduction of miracidia to sporocyst transformation at 5 μM compared to DMSO ([4]; 5 μM, 48 h): 50%; Miracidial transformation inhibition at 2 and 0.5 μM ([4]; 2 and 0.5 μM, 48 h): about 20%; Effect on miracidia at 10 and 50 μM ([4]; 10 and 50 μM, 48 h): lethal; Effect on adult worm motility at 3.15 μM ([5]; 3.15 μM, lowest concentration tested): complete cessation of worm mobility; also recorded: completely inhibited; Effect on adult worm motility at 12.5 and 6.25 μM ([5]; 12.5 and 6.25 μM): particularly active; EC50 ([5]; Table 3, read-out: Anti-schistosomal activity EC50 (μM) Adult Motility): 85 nM; EC50 ([5]; commercially sourced batch (c22), Fig. S7, read-out: EC50 on adult worms, original commercially sourced compound): 68.5 nM; EC50 ([5]; re-synthesised batch (rs22), Fig. S7, read-out: EC50 on adult worms, re-synthesised compound): 73.1 nM

Reference: paper PMC8626775, “Anti-schistosomal activities of quinoxaline-containing compounds: From hit identification to lead optimisation” (European Journal of Medicinal Chemistry, 2021)
